The source of these data is ChEMBL document CHEMBL1250493, “Interaction of daunomycin with acetylated chromatin” (J Med Chem, 2010).

For experiment [1], the species on record is Gallus gallus. In words: Binding affinity to histone H1 containing chromatin in chicken erythroleukemic cells mononucleosomes transformed with Marek's virus by Scatchard plot analysis.
For experiment [2], the species on record is Gallus gallus. Briefly: Binding affinity to histone H1 depleted chromatin in chicken erythroleukemic cells mononucleosomes transformed with Marek's virus by Scatchard plot analysis.

With `COc1cccc2c1C(=O)c1c(O)c3c(c(O)c1C2=O)C[C@@](O)(C(C)=O)C[C@@H]3O[C@H]1C[C@H](N)[C@H](O)[C@H](C)O1`, the K was determined as 4.6 ×10⁴ /M in experiment [1] and 6.4 ×10⁴ /M in experiment [2].
